From article PMC12365674, “Diverse metabolites with anti-psoriasis potential from different fermentations of the fungicolous fungus Xylarialongipes HFG1018” (IMA Fungus, 2025)

Key:
[1] = tested on: HaCaT cells; test: Antiproliferative activity against HaCaT cells (CCK-8); type: cell-based; settings: Homo sapiens, HaCaT, read-out: IC50 against the proliferation of HaCaT cells
Method: (§1) As previously described, the immunosuppressive activity, lymphocyte viability, and antiproliferative activity against HaCaT cells were evaluated using the CCK-8 method ([Zhao et al. 2023], [2024]).
(§2) In the immunosuppressive and lymphocyte viability, the primary tested concentration of all compounds was 20.0 μM, and dexamethasone (Dex) (c = 2.0 μM) was used as a positive control. In the antiproliferative activity against HaCaT cells, the primary tested concentration of all compounds was 40 μM, and the positive control was methotrexate (MTX) (c = 40.0 μM). When the inhibition rates are greater than 50%, the IC50 values of active compounds will be further tested and calculated. All experiments were performed in triplicate.

[2] = tested on: ConA-induced T lymphocytes; test: Anti-proliferative activity against ConA-induced T lymphocytes (CCK-8); type: cell-based; settings: Mus musculus, T-lymphocyte; for IC50: induced proliferation of T lymphocytes (ConA), CCK-8, read-out: T cells IC50
Method: as §1, §2

[3] = tested on: LPS-induced B lymphocytes; test: Anti-proliferative activity against LPS-induced B lymphocytes (CCK-8); type: cell-based, mouse; settings: Mus musculus, Lymphocyte; for IC50: induced proliferation of B lymphocytes (LPS), CCK-8, read-out: B cells IC50
Method: as §1, §2

[4] = Lymphocyte viability (CCK-8); type: cell-based, mouse; settings: mouse, lymphocytes; lymphocyte viability; CCK-8
Method: as §1, §2

[5] = tested on: HaCaT cells; test: EdU proliferation assay, HaCaT cells; type: cell-based; settings: c = 20 μM; compared to the control group
Method: EdU fluorescence labeling for cell proliferation of induced T/B lymphocytes (2 × 10^5 cells/well) and HaCaT cells (1 × 10^4 cells/well) of active compounds 10, 19, 23, 32, 38, and 41 (final concentration 10 or 20 μM) was performed as previously reported ([Biram and Shulman 2020]; [Zhao et al. 2024]). EdU (HF488) (the Click-iT™ EdU Flow Cytometry Assay Kit, APExBIO, USA) was added 24 h (final concentration 50 μM, T and B cells) and 4 h (final concentration 10 μM, HaCaT cells) before harvesting the cells. All procedures were performed according to the manufacturer’s instructions for the click reaction. EdU-positive cells and proliferating phase cells were analyzed with a fluorescence microscope.

[6] = tested on: lymphocytes; test: Lymphocyte viability (CCK-8); type: cell-based, mouse; settings: c = 2 μM
Method: as §1, §2

COc1ccc(O)c2c1C(=O)O[C@@H](C)C2 [Compound 24, (S)-5-hydroxy-8-methoxy-3-methylisochroman-1-one]
IC50 [1]: 32.5 ± 2 µM

COC(=O)c1ccc(O)c2c1C[C@@H](C)OC2=O [Compound 25, (R)-(−)-5-methoxycarbonylmellein]
IC50 [1]: 35.1 ± 1.9 µM

COC(=O)c1c[nH]c2ccccc12 [Compound 28, 1H-indole-3-carboxylic acid methyl ester]
IC50 [1]: 29.1 ± 1.7 µM

C[C@@H]1Cc2c(C(=O)O)ccc(O)c2C(=O)O1 [Compound 30, (R)-5-carboxymellein]
IC50 [1]: 31.2 ± 4.1 µM

CC(C)[C@@H](C)CC[C@@H](C)[C@H]1CC[C@H]2C3=C[C@@H](O)[C@@]4(O)C[C@@H](O)CC[C@]4(C)[C@H]3CC[C@]12C [Compound 33, (24S)-ergosta-7-ene-3β,5α,6β-triol]
IC50 [1]: 33.9 ± 2.8 µM

CC(C)[C@@H](C)/C=C/[C@@H](C)[C@H]1CC[C@H]2C3=CC(=O)[C@@]4(O)C[C@@H](O)CC[C@]4(C)[C@@]3(O)CC[C@]12C [Compound 34, 3β,5α,9α-trihydroxy-(22E,24R)-ergosta-7,22-dien-6-one]
IC50 [1]: 32.2 ± 3.4 µM

c1ccc2c3c([nH]c2c1)CNCC3 [Compound 36, tryptoline]
IC50 [2]: > 20 µM
IC50 [3]: 16.7 ± 1.8 µM
CC50 [4]: > 20 µM

CC(C)CC1NC(=O)C2CCCN2C1=O [Compound 37, cyclo-((S)-Pro-(R)-Leu))]
IC50 [1]: 32 ± 2.2 µM

CCCCCC=C(C(=O)O)C(C)C(=O)O (centres unmarked) [Compound 40, 2-hexylidene-3-methylsuccinic acid]
IC50 [1]: 32.9 ± 3.4 µM

CC(C)C(C)C(OC1OC(CO)C(O)C(O)C1O)C(O)C(C)C1CCC2=C3C=CC4=CC(=O)CCC4(C)C3CCC21C [Compound 41, 22,23-dihydroxy-ergosta-4,6,8(14)-trien-3-one-23-β-D-glucopyranoside]
IC50 [2]: 12.1 ± 1.7 µM
IC50 [3]: 16.7 ± 1.9 µM
CC50 [4]: > 20 µM
IC50 [1]: 27.7 ± 2.5 µM
proliferation rates of HaCaT cells measured by EdU [5]: significantly reduced

C[C@@H]1C[C@H]2[C@@H]3CCC4=CC(=O)C=C[C@]4(C)[C@@]3(F)[C@@H](O)C[C@]2(C)[C@@]1(O)C(=O)CO [Dex, dexamethasone, reference compound]
inhibition at 2 µM ([2]; c = 2 μM, ConA-induced T lymphocytes, read-out: Inhibition rate (%) T): 45.2 ± 4.9%
IC50 [2]: 1.9 ± 0.1 µM
inhibition at 2 µM ([3]; c = 2 μM, LPS-induced B lymphocytes, read-out: Inhibition rate (%) B): 68.6 ± 1.5%
IC50 [3]: 1 ± 0.05 µM
CC50 [4]: 0.2 ± 0.04 µM
Cell validity (%) [6]: 36.9 ± 2.2%

CN(Cc1cnc2nc(N)nc(N)c2n1)c1ccc(C(=O)N[C@@H](CCC(=O)O)C(=O)O)cc1 [MTX, methotrexate, reference compound]
IC50 [1]: 26.4 ± 1.4 µM
